Reference: article PMC10178506, “Chemical and Biological Evaluation of Novel 1H-Chromeno[3,2-c]pyridine Derivatives as MAO Inhibitors Endowed with Potential Anticancer Activity” (International Journal of Molecular Sciences, 2023)
“And” between values parts separate entries of the source, which are not always exact repeats. Identical values can stand only once. Like-named read-outs stand apart in the source and are kept apart here.

Legend:
[1] = target: T1, human recombinant MAO B (Homo sapiens, UniProt P27338); assay: biochemical; type: biochemical; conditions: for MAO B inhibition mechanism: Michaelis-Menten curves' fitting, kynuramine as the substrate; for IC50: hMAO-B IC50, mean ± S.D., determined for compounds with more than 60% inhibition at 10 μM
T1 construct: purchased Sigma Aldrich (Milan, Italy); host or cells: baculovirus-infected insect cells
T1 sequence (P27338 1-520): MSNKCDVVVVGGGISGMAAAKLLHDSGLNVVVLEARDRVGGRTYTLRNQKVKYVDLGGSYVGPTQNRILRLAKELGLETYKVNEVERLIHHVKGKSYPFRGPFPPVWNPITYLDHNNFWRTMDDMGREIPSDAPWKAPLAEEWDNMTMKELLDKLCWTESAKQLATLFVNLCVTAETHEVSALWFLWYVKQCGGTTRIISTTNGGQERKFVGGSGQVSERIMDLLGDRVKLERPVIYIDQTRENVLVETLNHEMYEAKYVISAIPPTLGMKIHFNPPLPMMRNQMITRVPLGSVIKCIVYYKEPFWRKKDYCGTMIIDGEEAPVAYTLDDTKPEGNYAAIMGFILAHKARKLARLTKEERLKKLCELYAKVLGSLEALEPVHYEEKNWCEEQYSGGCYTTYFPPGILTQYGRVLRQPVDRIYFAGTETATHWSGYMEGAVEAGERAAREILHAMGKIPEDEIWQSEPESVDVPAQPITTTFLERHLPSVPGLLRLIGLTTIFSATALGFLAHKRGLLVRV

[2] = target: T2, human recombinant AChE (Homo sapiens, UniProt P22303); assay: biochemical; conditions: for inhibition at 10 µM: read-out: hAChE % inhibition at 10 μM
T2 construct: purchased Sigma Aldrich (Milan, Italy)
Protocol: (§1) Human isoforms of MAOs (from baculovirus-infected insect cells) and ChEs (human recombinant AChE and BChE from human serum), purchased from Sigma Aldrich (Milan, Italy), were used for inhibition assays. Experiments were performed in 96-well plates (Greiner Bio-One, Kremsmünster, Austria) on the Infinite M1000 Pro plate reader (Tecan, Cernusco s.N., Italy), using already published protocols.
(§2) The inhibition of human recombinant AChE or BChE from human serum was determined by applying Ellman’s spectrophotometric method as described in previously reported protocols. The AChE activity was determined in an assay solution containing AChE (0.09 U/mL), 5,5′-dithiobis(2-nitrobenzoic acid) (i.e., the Ellman’s reagent, 0.33 mM), the test compound (10 μM concentration, or seven scalar concentrations for compounds achieving > 60% enzyme inhibition at 10 μM), in 0.1 M PBS pH 8.0. […] The BChE inhibitory activity was similarly determined by using BChE (0.09 U/mL) and butyrylthiocholine iodide (5 μM) as the substrate.
(§3) The IC50 values, Michaelis–Menten curve fitting and inhibition constant (Ki) were calculated by nonlinear regression, using Prism software.

[3] = target: T3, BChE from human serum (Homo sapiens, UniProt P06276); assay: biochemical; conditions: 10 μM concentration, mean ± S.D. (n = 3), n.i. = no inhibition at 10 μM; for inhibition at 10 µM: read-out: hBChE % inhibition at 10 μM
T3 construct: ChEs (human recombinant AChE and BChE from human serum), purchased from Sigma Aldrich (Milan, Italy); purchased Sigma Aldrich (Milan, Italy); host or cells: human serum (natural source)
Protocol: as §1, §2, §3

[4] = system: MCF-7, human breast carcinoma cell; assay: Antiproliferative activity, sulforhodamine-B (SRB) assay, MCF-7; type: cell-based; conditions: read-out: Antiproliferative activity IC50, MCF-7
Protocol: (§4) The SK-OV-3 ovarian cancer cell line, MCF-7 breast cancer line and HCT-116 colon cancer cell line were obtained from the National Cancer Institute, Biological Testing Branch (Frederick, MD, USA), and maintained in the logarithmic phase at 37 °C in a 5% CO2 humidified air in RPMI 1640 medium supplemented with 10% fetal calf serum, 2 mM glutamine, penicillin (100 U/mL) and streptomycin (0.1 mg/mL).
(§5) The growth inhibitory effects of compounds under investigation were compared to those of cisplatin (CDDP) and doxorubicin (DXR), used as positive controls, and evaluated by using the sulforhodamine-B (SRB) assay. Briefly, cells were seeded into 96-well microtiter plates in 100 µL of the appropriate culture medium at plating densities at 2500, 5000 and 8000 cells/well for MCF-7, HCT-116 and SKOV-3, respectively, depending upon the doubling time of individual cell lines. After seeding, microtiter plates were incubated at 37 °C for 24 h before adding the test compounds. After 24 h, several samples of each cell line were fixed in situ with cold trichloroacetic acid (TCA) to represent a measurement of the cell population at the time of compound addition. The test compounds were freshly dissolved in dimethyl sulfoxide (DMSO, 10^−2 M) and gradually diluted to different concentrations (0.79–50 µM) with a complete medium, so that the maximum DMSO/well ratio was 0.5% v/v. After the addition of different compound concentrations to triplicate wells, the plates were further incubated at 37 °C for 72 h. Cells were fixed in situ by the gentle addition of 50 µL of cold 50% w/v TCA (final concentration 10%) and incubated for 1 h at 4 °C. The supernatant was discarded, and the plates were washed with tap water and air-dried. SRB solution (100 µL) at 0.4% (w/v) in 1% acetic acid was added to each well, and the plates were incubated for 30 min at room temperature. After staining, the unbound dye was removed by washing with 1% acetic acid and the plates were air-dried. The bound stain was then solubilized with 10mM Trizma base and the absorbance was read on an automatic plate reader at 570 nm.

[5] = system: SK-OV-3, human ovarian carcinoma with intrinsic resistance to cisplatin; assay: Antiproliferative activity, sulforhodamine-B (SRB) assay, SK-OV-3; type: cell-based; conditions: read-out: Antiproliferative activity IC50, SK-OV-3
Protocol: as §4, §5

[6] = system: HCT116, colon cancer cell line; assay: Antiproliferative activity, sulforhodamine-B (SRB) assay, HCT116; type: cell-based, human; conditions: read-out: Antiproliferative activity IC50, HCT116
Protocol: as §4, §5

[7] = target: T4, human recombinant MAO A (Homo sapiens, UniProt P21397); assay: biochemical; type: biochemical; conditions: for inhibition at 10 µM: read-out: hMAO-A % inhibition at 10 μM
T4 construct: purchased Sigma Aldrich (Milan, Italy); host or cells: baculovirus-infected insect cells
T4 sequence (P21397 1-527): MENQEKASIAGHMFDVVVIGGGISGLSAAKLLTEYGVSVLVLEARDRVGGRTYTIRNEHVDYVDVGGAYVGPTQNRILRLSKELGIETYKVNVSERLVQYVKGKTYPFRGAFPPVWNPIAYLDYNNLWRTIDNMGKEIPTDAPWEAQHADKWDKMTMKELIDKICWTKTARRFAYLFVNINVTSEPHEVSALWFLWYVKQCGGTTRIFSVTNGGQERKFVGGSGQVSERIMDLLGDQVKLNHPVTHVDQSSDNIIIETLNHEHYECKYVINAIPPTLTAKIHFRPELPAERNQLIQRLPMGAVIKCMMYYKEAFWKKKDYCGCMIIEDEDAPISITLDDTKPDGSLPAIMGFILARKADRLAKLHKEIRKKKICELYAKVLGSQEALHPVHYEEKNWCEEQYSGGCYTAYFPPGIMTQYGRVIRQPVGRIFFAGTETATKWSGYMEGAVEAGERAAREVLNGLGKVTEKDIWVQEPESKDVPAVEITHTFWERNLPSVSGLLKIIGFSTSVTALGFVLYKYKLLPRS
Protocol: as §1
After the addition of human recombinant MAO A (250 U/mg) or MAO B (59 U/mg) and a further 30 min of incubation, NaOH was added, and the fluorescence read at 310/400 nm excitation/emission wavelength. […] IC50 is expressed as mean ± SD of three independent measurements, each one performed in duplicate. For the kinetic study on the inhibition mechanism of MAO B, three diverse scalar concentrations of the inhibitor and seven concentrations of kynuramine were used.
as §3

[8] = Homo sapiens, MCF7, 72 h exposure, SRB assay, mean ± S.D., >50 = less than 50% growth inhibition at 50 μM
[9] = Homo sapiens, SK-OV-3, 72 h, 72 h exposure, SRB assay, mean ± S.D., >50 = less than 50% growth inhibition at 50 μM
[10] = Homo sapiens, HCT-116, 72 h exposure, SRB assay, mean ± S.D., >50 = less than 50% growth inhibition at 50 μM
[11] = 72 h exposure, SRB assay, mean ± S.D., >50 = less than 50% growth inhibition at 50 μM

T3 sequence (P06276 29-602): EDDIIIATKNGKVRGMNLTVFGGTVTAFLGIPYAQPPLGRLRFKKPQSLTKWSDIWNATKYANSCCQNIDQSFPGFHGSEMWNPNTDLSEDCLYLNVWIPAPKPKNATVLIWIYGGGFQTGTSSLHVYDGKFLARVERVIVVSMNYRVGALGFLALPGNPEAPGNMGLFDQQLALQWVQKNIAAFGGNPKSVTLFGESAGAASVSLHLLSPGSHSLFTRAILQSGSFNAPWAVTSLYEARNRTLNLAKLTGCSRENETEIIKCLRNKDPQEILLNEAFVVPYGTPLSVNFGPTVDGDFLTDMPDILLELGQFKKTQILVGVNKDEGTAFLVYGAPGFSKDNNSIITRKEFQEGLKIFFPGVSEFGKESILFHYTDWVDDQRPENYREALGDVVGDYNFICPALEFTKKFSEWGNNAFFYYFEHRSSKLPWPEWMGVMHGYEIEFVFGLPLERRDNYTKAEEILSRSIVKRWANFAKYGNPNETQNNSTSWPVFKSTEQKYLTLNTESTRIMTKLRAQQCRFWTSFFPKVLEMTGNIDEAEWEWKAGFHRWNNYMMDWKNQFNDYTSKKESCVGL
T2 sequence (P22303 32-614): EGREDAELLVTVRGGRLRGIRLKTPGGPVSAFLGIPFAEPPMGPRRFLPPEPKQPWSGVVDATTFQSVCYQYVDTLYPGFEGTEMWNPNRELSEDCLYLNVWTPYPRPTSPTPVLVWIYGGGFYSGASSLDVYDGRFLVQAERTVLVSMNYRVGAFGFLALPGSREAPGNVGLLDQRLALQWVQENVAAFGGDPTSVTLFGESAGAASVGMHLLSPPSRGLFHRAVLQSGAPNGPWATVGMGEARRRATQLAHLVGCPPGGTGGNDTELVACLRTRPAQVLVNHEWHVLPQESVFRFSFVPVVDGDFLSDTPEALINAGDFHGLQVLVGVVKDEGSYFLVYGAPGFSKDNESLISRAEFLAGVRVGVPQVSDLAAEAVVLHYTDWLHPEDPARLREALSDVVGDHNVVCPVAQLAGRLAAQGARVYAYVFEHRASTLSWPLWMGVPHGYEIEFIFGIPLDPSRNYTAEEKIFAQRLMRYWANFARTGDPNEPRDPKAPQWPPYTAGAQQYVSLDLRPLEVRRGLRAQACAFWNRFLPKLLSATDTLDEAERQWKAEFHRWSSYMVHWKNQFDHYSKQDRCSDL

COc1cccc2c1O[C@]1(O)CCN(C)C[C@@H]1[C@@H]2O
melting point: 134 to 135 °C

COc1cccc2c1O[C@]1(O)CCN(C)C[C@H]1[C@@H]2O
melting point: 148 to 149 °C

CN1CC[C@@]2(O)Oc3ccc(Cl)cc3[C@@H](O)[C@H]2C1
melting point: 172 to 173 °C

COc1cccc2c(=O)c3c(oc12)C=CN(C)C3C#Cc1ccccc1 (stereo not shown) [3b, 6-Metoxy-2-methyl-1-(phenylethinyl)-1H-chromeno[3,2-c]pyridine-10(2H)-one]
Ki [1]: 1.41 ± 0.21 µM | MAO B inhibition mechanism [1]: competitive | MAO B/A selectivity ([1]; from MAO B and MAO A inhibition data): more than twentyfold | IC50 [1]: 0.63 µM and 0.626 µM | inhibition at 10 µM [2]: 39% | inhibition at 10 µM [3]: 19% | IC50 [4, 8]: 39.7 ± 11.3 µM | IC50 [5, 9]: > 50 µM | IC50 [6, 10]: 36.1 ± 2.1 µM | inhibition at 10 µM [7]: 32%

CCN1C=Cc2oc3ccccc3c(=O)c2C1C#CC(F)(F)F (stereo not shown) [3c, 2-Ethyl-1-(3,3,3-trifluoroprop-1-yn-1-yl)-1,2-dihydro-10H-chromeno[3,2-c]pyridin-10-one]
inhibition at 10 µM ([1]; read-out: hMAO-B % inhibition at 10 μM): 26% | hAChE % inhibition at 10 μM [2]: n.i. | inhibition at 10 µM [3]: 15% | IC50 [4, 8]: 27.8 ± 9.6 µM | IC50 [5, 9]: > 50 µM | IC50 [6, 10]: 47.2 ± 5.42 µM | inhibition at 10 µM [7]: 20%

CN1CC[C@@]2(O)Oc3ccc([N+](=O)[O-])cc3[C@@H](O)[C@H]2C1
melting point: 158 to 159 °C

CN1CCC2=C(C1)C(c1c[nH]c3ccccc13)c1cc(Cl)ccc1O2 (stereo not shown) [6a, 8-Chloro-10-(1H-indole-3-yl)-2-methyl-2,3,4,10-tetrahydro-1H-chromeno[3,2-c]pyridine]
IC50 [1]: 7.3 ± 0.65 µM | inhibition at 10 µM [2]: 53% | inhibition at 10 µM [3]: 38% | IC50 [4, 8]: 4.8 ± 0.81 µM | IC50 [5, 9]: 14.7 ± 2.81 µM | IC50 [6, 10]: 8.62 ± 2.21 µM | inhibition at 10 µM [7]: 21%

N.N.[Cl][Pt][Cl] [Cisplatin, reference compound]
IC50 [4, 11]: 4.8 ± 2.2 µM | IC50 [5, 11]: 4.43 ± 0.32 µM | IC50 [6, 11]: 5.02 ± 2.12 µM

CN1CC[C@@]2(O)Oc3ccc(Cl)cc3[C@@H](O)[C@@H]2C1
melting point: 167 to 168 °C

CN1CCC2=C(C1)C(c1c[nH]c3ccc(Br)cc13)c1cc(Cl)ccc1O2 (stereo not shown) [6c, 8-Chloro-10-(5-bromo-1H-indole-3-yl)-2-methyl-2,3,4,10-tetrahydro-1H-chromeno[3,2-c]pyridine]
Ki [1]: 6.47 ± 0.22 µM | MAO B inhibition mechanism [1]: competitive | IC50 [1]: 3.51 ± 0.2 µM | inhibition at 10 µM [2]: 37% | inhibition at 10 µM [3]: 23% | IC50 [4, 8]: 4.83 ± 0.79 µM | IC50 [5, 11]: 11.3 ± 0.32 µM | IC50 [5, 9]: 11 µM | IC50 [6, 10]: 9.4 ± 0.22 µM | inhibition at 10 µM [7]: 29%

CN1CCC2=C(C1)C(C[N+](=O)[O-])c1cc(Br)ccc1O2 (stereo not shown)
melting point: 140 to 142 °C

CN1CC=C2Oc3ccc(Br)cc3C=C2C1 [2b, 8-Bromo-2,3-dihydro-2-methyl-1H-chromeno[3,2-c]pyridine]
IC50 [1]: 7.88 ± 0.02 µM | inhibition at 10 µM [2]: 31% | hBChE % inhibition at 10 μM [3]: n.i. | IC50 ([4]; Homo sapiens, MCF7, 72 h): 42.9 ± 4.82 µM | IC50 ([5]; Homo sapiens, SK-OV-3, 72 h): > 50 µM | IC50 ([6]; Homo sapiens, HCT-116, 72 h): > 50 µM | IC50 [7]: 0.703 ± 0.012 µM | Selectivity for MAO A over MAO B ([7]; from MAO A and MAO B inhibition data): about tenfold

COc1ccc2[nH]cc(C3C4=C(CCN(C)C4)Oc4ccc(Cl)cc43)c2c1 (stereo not shown) [6b, 8-Chloro-10-(5-metoxy-1H-indole-3-yl)-2-methyl-2,3,4,10-tetrahydro-1H-chromeno[3,2-c]pyridine]
IC50 [1]: 4.72 ± 0.1 µM | inhibition at 10 µM [2]: 53% | inhibition at 10 µM [3]: 15% | IC50 [4, 8]: 6.62 ± 2.7 µM | IC50 [5, 9]: 22.3 ± 1.42 µM | IC50 [6, 10]: 18.6 ± 2.22 µM | inhibition at 10 µM [7]: 21%
